In PubChem BioAssay AID256 (DTP/NCI, 2004):
Where “and” joins values, the source holds several entries; their conditions need not be identical. Equal values may be shown once. Inconclusive results and toxic doses are left out. How the source made its calls: active means survival T/C of 150% or more; inactive means T/C below 125% in these data.

Tested on: CD2F1 mice, L1210 leukemia ip, survival T/C
Assay: NCI In Vivo Anticancer Drug Screen. Data for tumor model L1210 Leukemia (intraperitoneal) in CD2F1 (CDF1) mice
Settings: endpoint: mean survival time, higher = longer survival
In short: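 Each value reflects a quotient of treated over vehicle control outcomes in mice with a transplanted tumor.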

[1] = dose: 25.0 mg/kg/injection, schedule: Q01DX009 (ip), vehicle: saline with Tween-80
[2] = dose: 50.0 mg/kg/injection, schedule: Q01DX009 (ip), vehicle: saline with Tween-80
[3] = dose: 100.0 mg/kg/injection, schedule: Q01DX009 (ip), vehicle: saline with Tween-80
[4] = dose: 200.0 mg/kg/injection, schedule: Q01DX009 (ip), vehicle: saline with Tween-80
[5] = dose: 400.0 mg/kg/injection, schedule: Q01DX009 (ip), vehicle: saline with Tween-80
[6] = dose: 100.0 mg/kg/injection, schedule: Q04DX003 (ip), vehicle: saline with Tween-80
[7] = dose: 200.0 mg/kg/injection, schedule: Q01DX009 (ip), vehicle: saline
[8] = dose: 12.5 mg/kg/injection, schedule: Q01DX009 (ip), vehicle: saline with Tween-80
[9] = dose: 12.5 mg/kg/injection, schedule: Q04DX003 (ip), vehicle: saline

Measured: T/C

COc1ccc2nc3c(C)c4ccn(O)cc4c(C)c3c2c1
inactive: dose: 25.0 mg/kg/injection, schedule: Q04DX003 (ip), vehicle: water 106 % of control | dose: 50.0 mg/kg/injection, schedule: Q04DX003 (ip), vehicle: water 111 % of control | dose: 100.0 mg/kg/injection, schedule: Q04DX003 (ip), vehicle: water 114 % of control | dose: 178.0 mg/kg/injection, schedule: Q04DX003 (ip), vehicle: other 105 % of control | dose: 266.0 mg/kg/injection, schedule: Q04DX003 (ip), vehicle: other 103 % of control | dose: 400.0 mg/kg/injection, schedule: Q04DX003 (ip), vehicle: other 102 % of control | dose: 600.0 mg/kg/injection, schedule: Q04DX003 (ip), vehicle: other 103 % of control

Nc1ccc2c(c1)C(=O)c1ccccc1C2=O
inactive: [1] 98 % of control | [2] 98 % of control | [3] 101 % of control and 102 % of control | [4] 102 % of control | [5] 96 % of control

COc1cc(C(=O)NC(=S)Nc2ccc3ccccc3c2)cc(OC)c1OC
inactive: [3] 90 % of control | [4] 94 % of control

C1C2OC2CC2OC12 (configuration not stated)
inactive: dose: 100.0 mg/kg/injection, schedule: Q01DX001 (ip), vehicle: saline with Tween-80 97 % of control | dose: 200.0 mg/kg/injection, schedule: Q01DX001 (ip), vehicle: saline with Tween-80 97 % of control | dose: 400.0 mg/kg/injection, schedule: Q01DX001 (ip), vehicle: saline with Tween-80 98 % of control

CCCCOc1ccc(/C=N\N=C\c2ccc(OCCCC)cc2)cc1
inactive: [6] 88 % of control | dose: 200.0 mg/kg/injection, schedule: Q04DX003 (ip), vehicle: saline with Tween-80 91 % of control | dose: 400.0 mg/kg/injection, schedule: Q04DX003 (ip), vehicle: saline with Tween-80 86 % of control

O=C(O)c1cccc(Cl)n1
inactive: [3] 97 % of control | [4] 97 % of control | [5] 88 % of control

N=C(N)c1cn(C2OC(CO)C(O)C2O)c2ncnc(N)c12 (configuration not stated)
inactive: dose: 0.63 mg/kg/injection, schedule: Q01DX009 (ip), vehicle: saline 123 % of control | dose: 2.5 mg/kg/injection, schedule: Q01DX009 (ip), vehicle: saline 124 % of control

CCSC(C)C
inactive: dose: 100.0 mg/kg/injection, schedule: Q01DX009 (ip), vehicle: saline 101 % of control | [7] 96 % of control | dose: 400.0 mg/kg/injection, schedule: Q01DX009 (ip), vehicle: saline 98 % of control

OC12C3CC4C5C3C3(Cl)C(Cl)(Cl)C5(Cl)C(Cl)(C41)C23Cl (configuration not stated)
inactive: dose: 1.25 mg/kg/injection, schedule: Q01DX001 (ip), vehicle: other 107 % of control | dose: 2.5 mg/kg/injection, schedule: Q01DX001 (ip), vehicle: other 103 % of control | dose: 5.0 mg/kg/injection, schedule: Q01DX001 (ip), vehicle: other 100 % of control

c1ccc(-c2cc(-c3ccccc3)[o+]c(-c3ccccc3)c2)cc1
inactive: dose: 3.13 mg/kg/injection, schedule: Q01DX009 (ip), vehicle: saline with Tween-80 100 % of control | dose: 3.13 mg/kg/injection, schedule: Q04DX003 (ip), vehicle: saline 101 % of control | dose: 6.25 mg/kg/injection, schedule: Q01DX009 (ip), vehicle: saline with Tween-80 100 % of control | dose: 6.25 mg/kg/injection, schedule: Q04DX003 (ip), vehicle: saline 98 % of control | [8] 97 % of control | [9] 104 % of control | [6] 95 % of control

C[n+]1cnc2c(ccn2C2OC(CO)C(O)C2O)c1N (configuration not stated)
inactive: dose: 50.0 mg/kg/injection, schedule: Q01DX001 (ip), vehicle: saline 102 % of control | dose: 100.0 mg/kg/injection, schedule: Q01DX001 (ip), vehicle: saline 100 % of control | dose: 200.0 mg/kg/injection, schedule: Q01DX001 (ip), vehicle: saline 102 % of control | dose: 400.0 mg/kg/injection, schedule: Q01DX001 (ip), vehicle: saline 100 % of control

CCOP(=O)(OCC)C(C)c1ccccc1 (configuration not stated)
inactive: [3] 100 % of control | [4] 94 % of control

O=C(O)CC(NC(=O)CP(=O)(O)O)C(=O)O (configuration not stated)
inactive: dose: 86.4 mg/kg/injection, schedule: Q01DX009 (ip), vehicle: saline 98 % of control | [7] 112 % of control | dose: 225.0 mg/kg/injection, schedule: Q01DX009 (ip), vehicle: saline 116 % of control | dose: 240.0 mg/kg/injection, schedule: Q01DX009 (ip), vehicle: saline 105 % of control | dose: 250.0 mg/kg/injection, schedule: Q01DX009 (ip), vehicle: saline 115 % of control

NCCS[As](=O)(O)SCCN
inactive: [8] 97 % of control | [9] 101 % of control | [1] 103 % of control | dose: 25.0 mg/kg/injection, schedule: Q04DX003 (ip), vehicle: saline 98 % of control | [2] 94 % of control | dose: 50.0 mg/kg/injection, schedule: Q04DX003 (ip), vehicle: saline 101 % of control

C[N+](C)(C)CCCNC(=O)Nc1ccc(Cl)cc1
inactive: dose: 6.25 mg/kg/injection, schedule: Q04DX002 (ip), vehicle: saline 106 % of control | dose: 25.0 mg/kg/injection, schedule: Q04DX002 (ip), vehicle: saline 100 % of control
